The test system of experiment [1] is MCT rats. The conditions noted are these: cited from earlier work.
For experiment [2], the system named is adult cardiomyocytes. Briefly: IL6 incubation of isolated adult cardiomyocytes (microtubules, JPH2, t-tubules). The experiment is classed as cell-based. The conditions noted are these: IL6 10 ng/mL. As for the experimental part: To examine the direct effects of IL6 on the MT-JPH2 pathway, adult cardiomyocytes were incubated with IL6 (10 ng/mL) and then it was quantified how MT, JPH2, and t-tubules were affected. IL6 increased MT density as determined by quantitative immunofluorescence (16.0±0.9 vs 20.4±0.7 fluorescence intensity/μm^2, p<0.001) (FIGS. 4A and 4B). The altered MT structure disrupted JPH2 localization marked by loss of t-tubule enrichment (TT score: 65.6±2.5 vs 59.6±1.6, p=0.04) (FIGS. 4C and 4D). Finally, IL6 caused t-tubule remodeling with loss of t-tubule regularity (TT score: 59.9±1.9 vs 51.9±1.5, p=0.003) (FIGS. 4E and 4F).
Determination of how IL6 alters the microtubule-JPH2-t-tubule pathway in isolated cardiomyocytes: Right ventricular cardiomyocytes are isolated using the Langendorf retrograde perfusion protocol. Cardiomyocytes are incubated for 24, 48, and 72 hours with either phosphate buffered saline (PBS), IL6 (10 ng/mL), IL6 (10 ng/mL) plus the STAT3 inhibitor Stattic (2 μM), or IL6 (10 ng/mL) plus colchicine (10 μM). Then Western blot analysis and confocal microscopy is used to examine microtubule density, JPH2 protein levels and localization, and t-tubule morphology. JPH2 localization patterns and t-tubule remodeling are quantified using the TTPower plug-in in FIJI.

For experiment [3], the system named is H9c2 cardiomyocytes. In words: Seahorse mitochondrial respiration in H9c2 cardiomyocytes. Format: cell-based, rat. The following applies: 20 μM paclitaxel overnight. The protocol:
Cell culture and mitochondrial respiration measurements: H9c2 (ATCC CRL-1446) rat cardiomyocytes were maintained in Dulbecco's Modified Eagle's Medium (DMEM) (Thermo Scientific) supplemented with 10% fetal bovine serum (FBS) (Foundation, Gemini Bio-Products, West Sacramento, Calif.), 100 U/ml penicillin, and 100 μg/ml streptomycin (Invitrogen, Carlsbad, Calif.) at 37° C. with 5% CO2. Cells were passaged with Accutase (BioLegend, San Diego, Calif.). Differentiation was induced by changing to differentiation medium which had 2% horse serum (Equitech-Bio, Kerrville, Tex.), in place of FBS. Ten thousand cells were plated per Agilent Seahorse XFp dish pretreated with 0.1% gelatin (Sigma-Aldrich, St. Louis, Mo.). Five days after initial plating, cells were treated with differentiation media supplemented with 20 μM paclitaxel in DMSO (Sigma-Aldrich) overnight. The following day and one hour before the assay, cell media was changed to Seahorse DMEM assay media and supplemented with 5 mM glucose, 4 mM glutamine, and 1 mM pyruvate (Agilent, Santa Clara, Calif.). Oxygen consumption rate (OCR) was measured with an Agilent Seahorse XFp Extracellular Flux analyzer using the Agilent XFp Cell Mito Stress Test Kit with oligomycin A (final concentration after injection 1.5 μM), carbonyl cyanide 4-(trifluoromethoxy)phenylhydrazone (FCCP at 2 μM), and […] rotenone/actimycin. After the assay, cells were lysed in 50 μl of 1× Laemmli sample buffer supplemented with HALT protease and phosphatase inhibitor cocktail (Thermo Fisher). Cell lysates were electrophoresed on SDS-PAGE gels and stained with CBB per above to estimate total protein per sample. Raw Seahorse measurements were normalized to total protein and analyzed using Agilent Wave software.

For experiment [4], the target named is T1, IL-6 receptor (Homo sapiens, UniProt P08887).
T1 construct: host or cells: PAH patients (clinical trial run by others)
T1 sequence (P08887 20-468): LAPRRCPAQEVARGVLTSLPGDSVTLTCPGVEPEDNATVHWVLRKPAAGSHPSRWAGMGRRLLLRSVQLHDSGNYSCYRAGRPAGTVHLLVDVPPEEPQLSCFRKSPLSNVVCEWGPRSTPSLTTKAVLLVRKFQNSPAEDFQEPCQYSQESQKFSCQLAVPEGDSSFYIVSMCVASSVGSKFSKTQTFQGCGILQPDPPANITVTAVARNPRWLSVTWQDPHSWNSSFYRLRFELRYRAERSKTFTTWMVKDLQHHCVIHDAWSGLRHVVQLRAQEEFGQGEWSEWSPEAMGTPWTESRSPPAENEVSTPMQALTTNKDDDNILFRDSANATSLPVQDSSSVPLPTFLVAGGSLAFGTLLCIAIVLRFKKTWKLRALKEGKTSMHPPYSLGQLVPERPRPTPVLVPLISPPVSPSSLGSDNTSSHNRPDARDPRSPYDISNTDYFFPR
The conditions noted are these: PAH patients, vs control group; cited from earlier work.

Setting [5] is: therapy started one week after MCT.

“Also recorded” adds a separate entry of the source. Where two headings read alike, the source gives them in different places.

With `C[C@]12CCC(OC=O)CC1CC[C@@H]1[C@@H]2CC[C@]2(C)C(C34C=CC(=O)OC3O4)CC3O[C@]312` (stereo partly shown) [20S,21-epoxy-resibufogenin-3-formate], in experiment [1] (setting [5]), the mPAP result was “lowered mPAP” and the pulmonary vascular remodeling result is listed as “attenuated adverse pulmonary vascular remodeling”.
Take “IL6: inflammatory cytokine that binds to the cell membrane proteins IL6 receptor and GP130”: in experiment [2], the “JPH2 t-tubule enrichment (TT score)” value came out at 59.6±1.6, the “MT density by quantitative immunofluorescence” value was 20.4±0.7 fluorescence intensity/μm^2 and the “t-tubule regularity (TT score)” value is 51.9±1.5.
As to `CC(=O)O[C@H]1C(=O)[C@@]2(C)[C@H]([C@H](OC(=O)c3ccccc3)[C@]3(O)C[C@H](OC(=O)[C@H](O)[C@@H](NC(=O)c4ccccc4)c4ccccc4)C(C)=C1C3(C)C)[C@]1(OC(C)=O)CO[C@@H]1C[C@@H]2O` [Paclitaxel, paclitaxel], in experiment [3], the ATP production entry is listed as “reduced”, the coupling efficiency result is recorded as “reduced”, the maximal respiration entry is on record as “reduced” and the proton leak entry is listed as “enhanced”. Moreover, the spare capacity entry in experiment [3] is recorded as “reduced”.
In the case of `COc1cc2c(c(OC)c1OC)-c1ccc(OC)c(=O)cc1[C@@H](NC(C)=O)CC2` [colchicine], in experiment [1] (RV, listed as Colchicine), the JPH2 expression entry is reported as “increases JPH2 expression” and the t-tubule architecture result is “corrects t-tubule architecture”. Besides, in experiment [1] (RV), the JPH2 expression result was “increases JPH2 levels; also recorded: increases JPH2 expression”, the microtubule density entry is on record as “reduces microtubule density” and the t-tubule architecture entry is listed as “combats pathological t-tubule remodeling”. In experiment [1], the “RV function / contractility” value is “augments RV function” and the exercise capacity entry is “enhances exercise capacity”. Moreover, the “RV function / contractility” value in experiment [1] (listed as Colchicine) is “improves RV function”.
As for `CCCc1nn(C)c2c(=O)[nH]c(-c3cc(S(=O)(=O)N4CCN(C)CC4)ccc3OCC)nc12` [sildenafil], in experiment [1] (RV), the JPH2 expression entry is on record as “restores RV JPH2 expression”; the t-tubule architecture result was “restores RV JPH2 expression and t-tubule architecture”. The “RV function / contractility” value in experiment [1] is reported as “improves RV contractility”.
For “tocilizumab: a monoclonal antibody that antagonizes the IL-6 receptor”, in experiment [4], the PVR result was “not different between the tocilizumab and control groups; also recorded: does not alter PVR”.
